How the values were obtained:
[1] = tested on: Staphylococcus aureus (strain LSPQ 2499); assay: MIC of clinical strain; assay type: cell-based
[2] = tested on: Burkholderia cepacia (strain ID-28369); assay: MIC of clinical strain; assay type: cell-based
[3] = tested on: Xanthomonas maltophilia; assay: MIC of clinical strain; assay type: cell-based; conditions: Stenotrophomonas maltophilia
[4] = tested on: Pseudomonas aeruginosa PA 508 (mucoid phenotype); assay: Bactericidal activity in rat model of chronic pulmonary infection (agar beads); assay type: in vivo; conditions: Sprague-Dawley rats
Protocol: To evaluate the bactericidal efficacy of a liposomal aminoglycoside formulation produced according to the present invention, male, pathogen-free, Sprague-Dawley rats weighing 175 to 225 g (Charles River) were used. Chronic infection in lungs was established by intratracheal administration of 5×10^5 CFU of Pseudomonas aeruginosa PA 508 (mucoid phenotype) prepared in agar beads. After 3 days, three doses (600 μg) of free or liposome-encapsulated tobramycin were given intratracheally at intervals of 16 h. The lipid mixture were DPPC:DMPG at a molar ratio of 10:1 (formula no 1) and DPPC:DMPC at a molar ration of 15:1 (formula no 2). Sixteen hours after the last treatment, the animals were sacrificed and the entire lungs were removed aseptically, weighed, and homogeneized as described previously for mice. Serial 10-fold dilutions of the homogenates in cold PBS were made and spread in triplicate on proteose peptone agar plates. Identification of P. aeruginosa was confirmed by specific cultures. CFU were counted after 24 hour incubations at 37° C. under 5% CO^2. Counts were expressed in log CFU per pair of lungs. PBS and PBS-liposomes were used as controls. A second experiment to study the bactericidal effect of the liposomal tobramycin preparation, produced according to the present invention, was carried out as for Table 4 with the following modifications: 1) liposomes were prepared with a 15:1 molar ratio of DPPC:DMPG (formula no. 3); and 2) only two doses of 240 μg of free or liposome-encapsulated tobramycin were administered to the rats.

[5] = tested on: Escherichia coli (strain 1061 mn 88); assay: MIC of clinical strain; assay type: cell-based
[6] = tested on: Xanthomonas maltophilia; assay: In vitro bactericidal activity, viable bacterial counts in proteose peptone; assay type: cell-based; conditions: free tobramycin 3,12 μg/ml, liposomes entrapped tobramycin 3,08 μg/ml
Protocol: To evaluate the bactericidal efficacy of the liposonal tobramycin formulation produced according to the present invention (DPPC/DMPG), in vitro tests were performed against different clinical strains: […] To culture tubes containing proteose peptone (29 ml) a minimal number of 10^8 CFU of bacteria in logarithmic phase (1 ml) and of one of the following preparations (100 μl) were added at time zero: free tobramycin, control liposomes or PBS. Experiments were done in triplicate. At times 1, 3, 6, and 16 hours following the addition of antibiotic or controls, 2 ml of samples were collected and serial 10-fold dilutions were made and spread in triplicate on proteose peptone agar plates for gram negative strains and on […] for S. aureus. CFU were counted after 24-hour and 48-hourS incubations at 37° C. under 5% CO2. Counts were expressed in log CFU per ml of culture media.

[7] = tested on: Pseudomonas aeruginosa (strain 429); assay: MIC of clinical strain; assay type: cell-based
[8] = Phase transition / destabilization temperature by differential scan calorimetry; assay type: physicochemical
Protocol: The formulations of liposomes were assessed for their ability to fuse with bacteria. The liposomes were prepared as described above and contained different lipid mixtures. These lipid mixtures were dipalmitoylphosphatidylcholine (DPPC): dimirystoylphosphatidylglycerol (DMPG), DPPC: soybean 1-α-phosphatidylinositol, sodium salt, (PI), and 1,2-di-o-hexadecyl-sn-glycero-3-phosphocholine (DHPC): DMPG. All lipid mixtures were used at ratios of 10:1. PI is negatively charged with a phase transition temperature (Tc) of 23° C., while DHPC is neutral with a Tc of 42° C. All three formulations have a Tc of about 29.5° C. […] The bacterial strain used was Pseudomonas aeruginosa strain 429.
Different tobramycin-encapsulated liposomal formulations were prepared according to Example 1 and analyzed by differential scan colorimetry. Using differential scan calorimetry, the temperatures of phase transition (TC) were calculated for the tobramycin-liposomal formulations listed in Table 2. All these formulations were then listed in vitro to assess the antibiotic kinetics of liberation from the liposomes. In addition, these formulations were tested in a non-infected mouse model as previously described (Omri et al. 1994, Antimicrob. Agents Chemother. 38:1090-1095) to assess the persistence of the liposomes in the lung.

[9] = two doses of 240 μg intratracheally, '<significant count' = none or only rare cfu (0 to 6) on plates

Compound	MIC [1] [µg/mL]	MIC [2] [µg/mL]	MIC [3] [µg/mL]	log cfu/pair of lungs ([4]; three doses (600 μg) intratracheally at intervals of 16 h, '<significant count' = none or only rare cfu (0 to 4) on plates)	cfu/pair of lungs ([4]; three doses (600 μg) intratracheally at intervals of 16 h, '<significant count' = none or only rare cfu (0 to 4) on plates, counts <30 not statistically significant)	cfu/pair of lungs [4, 9]	log cfu/pair of lungs [4, 9]	MIC [5] [µg/mL]	Viable bacterial counts (cfu) ([6]; 0 h)	Viable bacterial counts (cfu) ([6]; 1 h after addition)	Viable bacterial counts (cfu) ([6]; 3 h after addition)	Viable bacterial counts (cfu) ([6]; 6 h after addition)	Viable bacterial counts (cfu) ([6]; 16 h after addition)	MIC [7] [µg/mL]	phase transition temperature (Tc) [8] [°C]
NC[C@H]1O[C@H](O[C@H]2[C@H](O)[C@@H](O[C@H]3O[C@H](CO)[C@@H](O)[C@H](N)[C@H]3O)[C@H](N)C[C@@H]2N)[C@H](N)C[C@@H]1O [Free tobramycin, tobramycin]	≥ 9	≥ 27	> 5	7.10 log cfu/pair of lungs	1.25 × 10^7 cfu/pair of lungs	1.07 × 10^6 cfu/pair of lungs	6.03 log cfu/pair of lungs	≥ 5	3,7 × 10^10 cfu	3,00 × 10^12 cfu	8,20 × 10^14 cfu	7,80 × 10^16 cfu	8,57 × 10^18 cfu	≥ 60	
soybean 1-α-phosphatidylinositol, sodium salt [PI]															23
CCCCCCCCCCCCCCCCOC[C@H](COP(=O)([O-])OCC[N+](C)(C)C)OCCCCCCCCCCCCCCCC [DHPC, 1,2-di-o-hexadecyl-sn-glycero-3-phosphocholine]															42

From patent publication US20010006660A1, “LOW-RIGIDITY LIPOSOMAL FORMULATION” (priority 1999, published 2001)
